Measured values taken from US20240124444A1 (Celgene Corporation, priority 2020, published 2024).
Where two headings read alike, the source gives them in different places.

Tested on: C. parvum strain UGA1
Test: C. parvum growth inhibition assay (Nluc luminescence in HCT-8 cells)
Format: cell-based, Cryptosporidium parvum
Conditions: for inhibition at 1 µM / inhibition at 10 µM: HCT-8; for inhibition at 1 µM: read-out: % inh @ 1 uM C. parvum; for inhibition at 10 µM: read-out: % inh @ 10 uM C. parvum; for EC50: C. parvum growth inhibition in HCT-8 cells, 48 hours, 6 concentrations 10-0.04 μM
[1] = Cryptosporidium parvum, single point inhibition at 1 uM
[2] = Cryptosporidium parvum, single point inhibition at 10 uM
[3] = Cryptosporidium parvum, HCT-8, 48 h
[4] = Cryptosporidium parvum, single point inhibition @ 1 uM
[5] = Cryptosporidium parvum, single point inhibition @ 10 uM

C[C@H]1C[C@@H]1C(=O)Nc1cc2[nH]c(-c3ccnc(C(F)(F)F)n3)cc2cn1 (stereo in doubt) [Example 262, (1S,2S)-2-methyl-N-(2-(2-(trifluoromethyl)pyrimidin-4-yl)-1H-pyrrolo[3,2-c]pyridin-6-yl)cyclopropanecarboxamide]
inhibition at 1 µM [1]: 0 to 33% | inhibition at 10 µM [2]: 0 to 33%

Cn1cc(-c2cc3cnc(Nc4ccc(F)cc4)cc3n2C)cn1 [Example 235, N-(4-fluorophenyl)-1-methyl-2-(1-methyl-1H-pyrazol-4-yl)-1H-pyrrolo[3,2-c]pyridin-6-amine]
inhibition at 1 µM [1]: 0 to 33% | inhibition at 10 µM [2]: 33 to 66%

Cc1cc(-c2cc3cnc(NC4CCNCC4)cc3n2C)ncn1 [Example 120, 1-methyl-2-(6-methylpyrimidin-4-yl)-N-(piperidin-4-yl)-1H-pyrrolo[3,2-c]pyridin-6-amine]
EC50 [3]: > 1 µM

Cn1cc(C(=O)Nc2cc3[nH]c(-c4cc(C(F)(F)F)ncn4)cc3cn2)cn1 [Example 254, 1-methyl-N-(2-(6-(trifluoromethyl)pyrimidin-4-yl)-1H-pyrrolo[3,2-c]pyridin-6-yl)-1H-pyrazole-4-carboxamide]
inhibition at 1 µM [1]: 0 to 33% | inhibition at 10 µM [2]: 0 to 33%

FC(F)(F)COc1nccc(-c2cc3cnc(NC4CCOCC4)cc3[nH]2)n1 [Example 380, N-(tetrahydro-2H-pyran-4-yl)-2-(2-(2,2,2-trifluoroethoxy)pyrimidin-4-yl)-1H-pyrrolo[3,2-c]pyridin-6-amine]
EC50 [3]: > 1 µM

c1cc(Nc2cc3[nH]c(-c4cccnc4)cc3cn2)cc(-c2nc[nH]n2)c1 [Example 272, N-(3-(1H-1,2,4-triazol-3-yl)phenyl)-2-(pyridin-3-yl)-1H-pyrrolo[3,2-c]pyridin-6-amine]
inhibition at 1 µM [1]: 0 to 33% | inhibition at 10 µM [2]: 0 to 33%

FC(F)(F)CNc1nccc(-c2cc3cnc(NC4CCOC4)cc3[nH]2)n1 (stereo in doubt) [Example 366, (R)-N-(tetrahydrofuran-3-yl)-2-(2-(2,2,2-trifluoroethylamino)pyrimidin-4-yl)-1H-pyrrolo[3,2-c]pyridin-6-amine]
EC50 [3]: < 0.5 µM

Cn1cc(C(=O)Nc2cc3[nH]c(-c4cnc(C(F)(F)F)cn4)cc3cn2)cn1 [Example 304, 1-methyl-N-(2-(5-(trifluoromethyl)pyrazin-2-yl)-1H-pyrrolo[3,2-c]pyridin-6-yl)-1H-pyrazole-4-carboxamide]
inhibition at 1 µM [1]: 33 to 66% | inhibition at 10 µM [2]: 0 to 33%

CNC(=O)Nc1cc2[nH]c(-c3ccnc(C)c3)cc2cn1 [Example 214, 1-methyl-3-(2-(2-methylpyridin-4-yl)-1H-pyrrolo[3,2-c]pyridin-6-yl)urea]
inhibition at 1 µM [1]: 0 to 33% | inhibition at 10 µM [2]: 67 to 100%

Cn1cc(C(=O)Nc2cc3[nH]c(C4CC4)cc3cn2)cn1 [Example 88, N-(2-cyclopropyl-1H-pyrrolo[3,2-c]pyridin-6-yl)-1-methyl-1H-pyrazole-4-carboxamide]
EC50 [3]: > 1 µM | inhibition at 1 µM [4]: 33 to 66% | inhibition at 10 µM [5]: 0 to 33%

Cc1cccc(-c2cc3cnc(NC(=O)C4CC4)cc3n2C)c1 [Example 346, N-(1-methyl-2-m-tolyl-1H-pyrrolo[3,2-c]pyridin-6-yl)cyclopropanecarboxamide]
EC50 [3]: > 1 µM

Cc1cc(-c2[nH]c3cc(NC4CCOCC4)ncc3c2C)ccn1 [Example 362, 3-methyl-2-(2-methylpyridin-4-yl)-N-(tetrahydro-2H-pyran-4-yl)-1H-pyrrolo[3,2-c]pyridin-6-amine]
EC50 [3]: > 1 µM

CC(=O)Nc1cc2[nH]c(-c3cccnc3)cc2cn1 [Example 198, N-(2-(pyridin-3-yl)-1H-pyrrolo[3,2-c]pyridin-6-yl)acetamide]
inhibition at 1 µM [1]: 0 to 33% | inhibition at 10 µM [2]: 67 to 100%

CCCOc1nccc(-c2cc3cnc(NC(=O)c4cnn(C)c4)cc3[nH]2)n1 [Example 312, 1-methyl-N-(2-(2-propoxypyrimidin-4-yl)-1H-pyrrolo[3,2-c]pyridin-6-yl)-1H-pyrazole-4-carboxamide]
inhibition at 1 µM [1]: 0 to 33% | inhibition at 10 µM [2]: 0 to 33%

CCOc1nccc(-c2cc3cnc(NC(=O)c4cccc5cn[nH]c45)cc3[nH]2)n1 [Example 243, N-(2-(2-ethoxypyrimidin-4-yl)-1H-pyrrolo[3,2-c]pyridin-6-yl)-1H-indazole-7-carboxamide]
inhibition at 1 µM [1]: 0 to 33% | inhibition at 10 µM [2]: 0 to 33%

Cc1cc(-c2cc3cnc(N[C@@H]4CCOC4)cc3[nH]2)ccn1 [Example 13, (R)-2-(2-Methylpyridin-4-yl)-N-(tetrahydrofuran-3-yl)-1H-pyrrolo[3,2-c]pyridin-6-amine]
EC50: 0.5 to 1 µM | inhibition at 1 µM [4]: 33 to 66% | inhibition at 10 µM [5]: 67 to 100%

N#Cc1cc2cnc(NC(=O)C3CC3)cc2[nH]1 [Example 180, N-(2-cyano-1H-pyrrolo[3,2-c]pyridin-6-yl)cyclopropanecarboxamide]
inhibition at 1 µM [4]: 0 to 33% | inhibition at 10 µM [5]: 67 to 100%

COc1cccc(Nc2cc3[nH]c(-c4cncn4C)cc3cn2)c1 [Example 204, N-(3-methoxyphenyl)-2-(1-methyl-1H-imidazol-5-yl)-1H-pyrrolo[3,2-c]pyridin-6-amine]
inhibition at 1 µM [1]: 33 to 66% | inhibition at 10 µM [2]: 67 to 100%

CN1CCC(c2cc3cnc(NC(=O)c4cnn(C)c4)cc3[nH]2)CC1 [Example 336, 1-methyl-N-(2-(1-methylpiperidin-4-yl)-1H-pyrrolo[3,2-c]pyridin-6-yl)-1H-pyrazole-4-carboxamide]
inhibition at 1 µM [1]: 0 to 33% | inhibition at 10 µM [2]: 0 to 33%

Cc1cc2cnc(NC(=O)C3CC3)cc2[nH]1 [Example 327, N-(2-methyl-1H-pyrrolo[3,2-c]pyridin-6-yl)cyclopropanecarboxamide]
inhibition at 1 µM [1]: 0 to 33% | inhibition at 10 µM [2]: 0 to 33%

Cn1cc(C(=O)Nc2cc3[nH]c(CCCO)cc3cn2)cn1 [Example 89, N-(2-(3-hydroxypropyl)-1H-pyrrolo[3,2-c]pyridin-6-yl)-1-methyl-1H-pyrazole-4-carboxamide]
EC50 [3]: > 1 µM | inhibition at 1 µM [4]: 0 to 33% | inhibition at 10 µM [5]: 0 to 33%

COc1nccc(-c2cc3cnc(NC(=O)c4cnn(C5CCCC5)c4)cc3[nH]2)n1 [Example 183, 1-cyclopentyl-N-(2-(2-methoxypyrimidin-4-yl)-1H-pyrrolo[3,2-c]pyridin-6-yl)-1H-pyrazole-4-carboxamide]
inhibition at 1 µM [4]: 0 to 33% | inhibition at 10 µM [5]: 67 to 100%

O=C(Nc1cc2[nH]c(C(F)(F)F)cc2cn1)C1CCC1 [Example 76, N-(2-(trifluoromethyl)-1H-pyrrolo[3,2-c]pyridin-6-yl)cyclobutanecarboxamide]
EC50 [3]: > 1 µM

CC(C)C(=O)Nc1cc2[nH]c(-c3ccncc3)cc2cn1 [Example 78, N-(2-(pyridin-4-yl)-1H-pyrrolo[3,2-c]pyridin-6-yl)isobutyramide]
EC50 [3]: > 1 µM | inhibition at 1 µM [4]: 33 to 66% | inhibition at 10 µM [5]: 67 to 100%

COc1nccc(-c2cc3cnc(NC(=O)c4cn(CC5CCOC5)nc4C)cc3[nH]2)n1 (stereo in doubt) [Example 326, (S)-N-(2-(2-methoxypyrimidin-4-yl)-1H-pyrrolo[3,2-c]pyridin-6-yl)-3-methyl-1-((tetrahydrofuran-3-yl)methyl)-1H-pyrazole-4-carboxamide]
inhibition at 1 µM [1]: 0 to 33% | inhibition at 10 µM [2]: 0 to 33%
